Counter-ions that a name gives are not always drawn.
Assays:
[1] = Perhydrolysis of esters in H2O2 solution, peracid by iodometric titration; type: physicochemical; conditions: 50 ppm ester; for peracid generation under the tested conditions: 150 ppm H2O2, pH 8.5; for Peracid: 150 ppm H2O2, pH 8.5, ambient
Method: (§1) [drawing 8] were added to 150 ppm H2O2 solution of pH 8.5 (DI water adjusted by adding 3.0 g of NaHCO3 per liter of water and then adjusted pH with Na2CO3) respectively under ambient conditions. The concentration of peroxycarboxylic acids were measured by an iodometric titration method.
as §1, with “Fifty (50) ppm various formic acid esters” for “[drawing 8]”, “method. […]” for “method.”

[2] = tested on: Aspergillus brasiliensis ATCC 16403; assay: Anti-fungal suspension test of Ester PFA, dirty conditions; type: cell-based
Text: Aspergillus brasilensis ATCC 16403 was used to evaluate the efficacy in treatment with performic acid compositions according to the conditions shown in Table 18.

[3] = tested on: pseudomonas; assay: Suspension test in cooling tower water samples; type: cell-based; conditions: 5 ppm Ester PFA / 6.13 ppm POAA, 10 minutes
Method: The antimicrobial efficacy of peroxyformic acid generated through the perhydrolysis of glycerol formatted were tested against pseudomonas in cooling tower samples at both 25° C. and 37° C., along with the peroxyacetic acid (POAA) controls, and the results are summarized in Table 6 and 7 below.

[4] = tested on: Aspergillus brasiliensis ATCC 16404; assay: Fungicidal activity of ester PFA, dirty conditions (Example 20); type: cell-based; conditions: 35°C, 5 minutes
Text: Various Bacillus and Aspergillus pathogens were used to evaluate the micro efficacy of ester PFA generated according to methods of the present invention.

[5] = tested on: Nalidixic acid resistant E. coli O157:H7; assay: Reduction of E. coli on raw beef brisket, dip treatment; type: cell-based; conditions: 10 minutes dip, ambient, 220 ppm POAA / 180 ppm PFA / 50 ppm LAS per formula (Table 15)
Method: Nalidixic acid resistant E. coli O157:H7 was used to evaluate the efficacy in treatment with performic acid composition on raw beef brisket according to the conditions shown in Table 14.
The generation of PFA from the perhydrolysis of glycerol formates, PFA formulations, POAA formations and controls were evaluated as shown in Table 15.

[6] = Peninsula Cooling Water pH 8.81, 25°C
[7] = Peninsula Cooling Water pH 8.81, 37°C

CCOC=O [Ethyl formate]
peracid generation under the tested conditions [1]: no detectable peracid | Peracid ([1]; 1 min): 0.00 ppm | Peracid ([1]; 5 min): 0.00 ppm | Peracid ([1]; 10 min): 0.00 ppm | Peracid ([1]; 15 min): 0.00 ppm | Peracid ([1]; 25 min): 0.00 ppm | Peracid ([1]; 35 min): 0.00 ppm

CC(=O)OCC(COC(C)=O)OC(C)=O [Triacetin]
peracid generation under the tested conditions [1]: no detectable peracid | Peracid ([1]; 1 min): 0.00 ppm | Peracid ([1]; 5 min): 0.00 ppm | Peracid ([1]; 10 min): 0.00 ppm | Peracid ([1]; 15 min): 0.00 ppm | Peracid ([1]; 25 min): 0.00 ppm | Peracid ([1]; 35 min): 0.00 ppm

O=COO [Ester PFA, peroxyformic acid]
Log10 Growth ([2]; 320 ppm PFA, 20°C, 5 minutes): 3.27 Log10 | Log10 Reduction ([2]; 320 ppm PFA, 20°C, 5 minutes): 2.57 Log10 | Log10 Growth ([2]; 320 ppm PFA, 20°C, 10 minutes): 2.22 Log10 | Log10 Reduction ([2]; 320 ppm PFA, 20°C, 10 minutes): 3.61 Log10 | Log10 Growth ([2]; 320 ppm PFA, 30 C., 5 minutes): 2.19 Log10 | Log10 Reduction ([2]; 320 ppm PFA, 30 C., 5 minutes): 3.64 Log10 | Log10 Growth ([2]; 320 ppm PFA, 30 C., 10 minutes): <2.15 Log10 | Log10 Reduction ([2]; 320 ppm PFA, 30 C., 10 minutes): >3.68 Log10 | Log10 Growth ([2]; 400 ppm PFA, 20°C, 5 minutes): <2.15 Log10 | Log10 Reduction ([2]; 400 ppm PFA, 20°C, 5 minutes): >3.68 Log10 | Log10 Growth ([2]; 400 ppm PFA, 20°C, 10 minutes): <2.15 Log10 | Log10 Reduction ([2]; 400 ppm PFA, 20°C, 10 minutes): >3.68 Log10 | Log10 Growth ([2]; 400 ppm PFA, 30 C., 5 minutes): 1.48 Log10 | Log10 Reduction ([2]; 400 ppm PFA, 30 C., 5 minutes): 4.36 Log10 | Log10 Growth ([2]; 400 ppm PFA, 30 C., 10 minutes): <2.15 Log10 | Log10 Reduction ([2]; 400 ppm PFA, 30 C., 10 minutes): >3.68 Log10 | Avg. Log10 Growth ([3]; BP Cooling Water pH 8.74, 25°C): 2.74 Log10 | Log10 Reduction ([3]; BP Cooling Water pH 8.74, 25°C): 2.93 Log10 | Avg. Log10 Growth ([3]; BP Cooling Water pH 8.74, 37°C): 2.68 Log10 | Log10 Reduction ([3]; BP Cooling Water pH 8.74, 37°C): 2.42 Log10 | Avg. Log10 Growth [3, 6]: 2.76 Log10 | Log10 Reduction [3, 6]: 2.42 Log10 | Avg. Log10 Growth [3, 7]: 2.70 Log10 | Log10 Reduction [3, 7]: 2.40 Log10 | Log10 Growth ([4]; Table 23: 300 ppm PFA): 3.87 Log10 | Log10 Reduction ([4]; Table 23: 300 ppm PFA): 2.26 Log10 | Log10 Growth ([4]; Table 23: 350 ppm PFA): 2.23 Log10 | Log10 Reduction ([4]; Table 23: 350 ppm PFA): 3.91 Log10 | Average Log CFU/cm2 [5]: 2.74 Log CFU/cm2 | Log reduction [5]: 1.30 Log
